US8280710B2, “Method for determining thermal stability of collagen or collagen-like peptide” (University of Medicine and Dentistry of New Jersey, priority 2005, dated 2012)
Non-standard residues stand in square brackets, D forms with d. Residues, ends and D or L forms follow the SMILES beside them. Hyp = O=C(O)[C@@H]1C[C@@H](O)CN1

Experiments:
[1] = peptide of Table 3, defined standard conditions
Protocol: The propensity measurements for all 20 amino acid residues in the Xaa1 position in a Gly-Xaa1-Hyp context and all 20 amino acid residues in the Xaa2 position in a Gly-Pro-Xaa2 context were determined by measuring thermal stability of host-guest peptides (Persikov, et al. (2000) supra).
The Tm values of all host-guest peptides were measured under a set of standard conditions, with c=1 mg/ml in phosphate-buffered saline, pH 7.0, and with a heating rate average of 0.1° C./minute (Persikov, et al. (2004) supra).

[2] = Method for predicting global Tm of collagen peptides from amino acid sequence; settings: observed minus predicted, peptides of Table 3
Protocol: The global thermal stability of homotrimeric triple helical peptides with length of at least 6 tripeptide units and, in most cases, containing 10 tripeptide units was determined as follows.
For the total number of triplets n in a given peptide, the base Tm^0(n) for (Pro-Hyp-Gly) or (Pro-Pro-Gly)n was calculated from the length dependence (Equation 1), including any effect of blocking groups;
The melting temperature value was decreased for every triplet in the sequence that was not Gly-Pro-Hyp, subtracting a value of ΔTm^GXY (Table 1). The N-terminal and C-terminal tripeptide units were excluded from the calculation due to the staggering of the chains and the disorder for the peptide ends (Bella et al. (1994) supra; Li, et al. (1993) Biochemistry 32:7377-7387; Kramer, et al. (2001) J. Mol. Biol. 301:1191-1205).
The resulting value for the peptide melting temperature was adjusted using the ΔTm^int values for interactions between neighboring tripeptides (Table 2).
The method was formulated as follows.
To extrapolate the dependence of the Tm of the host peptides on peptide length, the experimental values for (Pro-Hyp-Gly)n and (Pro-Pro-Gly)n versus n, where n is the number of tripeptide units, were fit to the exponential decay function
[formula] where Tm^0(n) is defined as the base thermal stability of the repeating polytripeptide standard, Tm^max is the maximum melting temperature, and the constant n0 represents the length of the repeating peptide with Tm=0.

| Compound | Tm^obs [1] [°C] | ΔTm [2] |
| --- | --- | --- |
| CC(=O)NCC(=O)N1CCC[C@H]1C(=O)N1C[C@H](O)C[C@H]1C(=O)NCC(=O)N1CCC[C@H]1C(=O)N1C[C@H](O)C[C@H]1C(=O)NCC(=O)N[C@@H](CCCNC(=N)N)C(=O)N[C@@H](CCC(N)=O)C(=O)NCC(=O)N[C@@H](CCCCN)C(=O)N[C@@H](CCCNC(=N)N)C(=O)NCC(=O)N[C@@H](CCCCN)C(=O)N1C[C@H](O)C[C@H]1C(=O)NCC(=O)N1CCC[C@H]1C(=O)N1C[C@H](O)C[C@H]1C(=O)NCC(=O)N1CCC[C@H]1C(=O)N1C[C@H](O)C[C@H]1C(=O)NCC(=O)N1CCC[C@H]1C(=O)N1C[C@H](O)C[C@H]1C(=O)NCC(=O)NCC(N)=O [AchE-HG-Alt, Ac-GPO-GPO-GRQ-GKR-GKO-GPO-GPO-GPO-GG-NH2] (Ac-GP[Hyp]GP[Hyp]GRQGKRGK[Hyp]GP[Hyp]GP[Hyp]GP[Hyp]GG-NH2) | 20.1 | −0.5 °C |
| CC(=O)NCC(=O)N1CCC[C@H]1C(=O)N1C[C@H](O)C[C@H]1C(=O)NCC(=O)N1CCC[C@H]1C(=O)N1C[C@H](O)C[C@H]1C(=O)NCC(=O)N1CCC[C@H]1C(=O)N1C[C@H](O)C[C@H]1C(=O)NCC(=O)N[C@@H](CCCCN)C(=O)N[C@@H](CCCNC(=N)N)C(=O)NCC(=O)N[C@@H](CCCCN)C(=O)N1C[C@H](O)C[C@H]1C(=O)NCC(=O)N1CCC[C@H]1C(=O)N1C[C@H](O)C[C@H]1C(=O)NCC(=O)N1CCC[C@H]1C(=O)N1C[C@H](O)C[C@H]1C(=O)NCC(=O)N1CCC[C@H]1C(=O)N1C[C@H](O)C[C@H]1C(=O)NCC(=O)NCC(N)=O [AchE-HG-C1, Ac-GPO-GPO-GPO-GKR-GKO-GPO-GPO-GPO-GG-NH2] (Ac-GP[Hyp]GP[Hyp]GP[Hyp]GKRGK[Hyp]GP[Hyp]GP[Hyp]GP[Hyp]GG-NH2) | 32.3 | −1.0 °C |
| CC(=O)NCC(=O)N1CCC[C@H]1C(=O)N1C[C@H](O)C[C@H]1C(=O)NCC(=O)N1CCC[C@H]1C(=O)N1C[C@H](O)C[C@H]1C(=O)NCC(=O)N[C@@H](CCCNC(=N)N)C(=O)N1C[C@H](O)C[C@H]1C(=O)NCC(=O)N[C@@H](CCCCN)C(=O)N[C@@H](CCCNC(=N)N)C(=O)NCC(=O)N[C@@H](CCCCN)C(=O)N1C[C@H](O)C[C@H]1C(=O)NCC(=O)N1CCC[C@H]1C(=O)N1C[C@H](O)C[C@H]1C(=O)NCC(=O)N1CCC[C@H]1C(=O)N1C[C@H](O)C[C@H]1C(=O)NCC(=O)N1CCC[C@H]1C(=O)N1C[C@H](O)C[C@H]1C(=O)NCC(=O)NCC(N)=O [AchE-HG-C2, Ac-GPO-GPO-GRO-GKR-GKO-GPO-GPO-GPO-GG-NH2] (Ac-GP[Hyp]GP[Hyp]GR[Hyp]GKRGK[Hyp]GP[Hyp]GP[Hyp]GP[Hyp]GG-NH2) | 26.9 | 0.3 °C |
| CC(=O)NCC(=O)N1CCC[C@H]1C(=O)N1C[C@H](O)C[C@H]1C(=O)NCC(=O)N1CCC[C@H]1C(=O)N1C[C@H](O)C[C@H]1C(=O)NCC(=O)N1CCC[C@H]1C(=O)N1C[C@H](O)C[C@H]1C(=O)NCC(=O)N1CCC[C@H]1C(=O)N1C[C@H](O)C[C@H]1C(=O)NCC(=O)N1CCC[C@H]1C(=O)N[C@@H](C)C(=O)NCC(=O)N1CCC[C@H]1C(=O)N[C@@H](C)C(=O)NCC(=O)N1CCC[C@H]1C(=O)N[C@H](C(=O)NCC(=O)N1CCC[C@H]1C(=O)N[C@@H](C)C(=O)NCC(=O)N[C@@H](C)C(=O)N[C@@H](CCCNC(=N)N)C(=O)NCC(=O)N1CCC[C@H]1C(=O)N[C@@H](C)C(=O)NCC(=O)N[C@H](C(N)=O)C(C)C)C(C)C [T1-892r, Ac-(GPO)4-GPA-GPA-GPV-GPA-GAR-GPA-GV-NH2] (Ac-GP[Hyp]GP[Hyp]GP[Hyp]GP[Hyp]GPAGPAGPVGPAGARGPAGV-NH2) | – | −2.2 °C |
| MBL: MBL peptide(s) of Table 3 containing Gly-Lys-Asp-Gly-Arg-Asp-Gly-Thr-Lys-Gly-Glu-Lys-Gly-Glu-Hyp; not said whether MBL 42-61 or 45-61 (GKDGRDGTKGEKGEP) | – | higher than observed |
